{"source": "patent US20070104799A1", "about": "“Treatment of chronic kidney disease (CKD) subjects using lanthanum compounds” (SHIRE INT[…] B.V., priority 2005, published 2007)", "tested_on": "Crl:CD (SD) Br (VAFplus) female rats with spontaneous renal pathology, including mineralization", "settings": "104 weeks; for rats with evidence of pelvic/papillary mineralization / rats with evidence of transitional cell hyperplasia in kidneys: n=60; for rats with evidence of pelvic/papillary mineralization: undosed rats approx. 50% (n=120); for rats with evidence of transitional cell hyperplasia in kidneys: undosed rats approx. 63% (n=120)", "description": "Crl:CD (SD) Br (VAFplus) female rats (available from Charles River Laboratories in Wilmington, Mass.) were orally dosed once daily with 0, 100, 500, or 1500 mg (salt)/kg of lanthanum carbonate for 104 weeks. Crl:CD (SD) Br (VAFplus) female rats develop spontaneous renal pathology, including mineralization, as they age. At week 105, the pathological examination of the kidneys of these rats was performed.\nTransitional cell hyperplasia is a response to trauma caused by the unnatural presence of mineral in the tissue, thus mineralization and hyperplasia are closely linked.", "note": "Where two headings read alike, the source gives them in different places."}
{"smiles": "O=C([O-])[O-].O=C([O-])[O-].O=C([O-])[O-].[La+3].[La+3]", "note": "[lanthanum carbonate]", "values": [{"measurement": "rats with evidence of pelvic/papillary mineralization", "setting": "100 mg (salt)/kg/day oral", "result": "~35", "unit": "%"}, {"measurement": "rats with evidence of transitional cell hyperplasia in kidneys", "setting": "100 mg (salt)/kg/day oral", "result": "~48", "unit": "%"}, {"measurement": "rats with evidence of pelvic/papillary mineralization", "setting": "500 mg (salt)/kg/day oral", "result": "~5", "unit": "%"}, {"measurement": "rats with evidence of transitional cell hyperplasia in kidneys", "setting": "500 mg (salt)/kg/day oral", "result": "~23", "unit": "%"}, {"measurement": "rats with evidence of pelvic/papillary mineralization", "setting": "1500 mg (salt)/kg/day oral", "result": "~1.7", "unit": "%"}, {"measurement": "rats with evidence of transitional cell hyperplasia in kidneys", "setting": "1500 mg (salt)/kg/day oral", "result": "~7", "unit": "%"}, {"measurement": "effect on renal calcification (study conclusion)", "setting": "oral administration, 100-1500 mg (salt)/kg/day", "result": "reduces renal calcification"}]}
